Common to all, as to assay: Field trapping test, baited Trappit dome traps in apple and pear orchards
Holding throughout (assay type): in vivo
Settings in all cases: for Numbers captured in traps: Experiment 4, 0.25% acetic acid in drowning solution and/or 1 ml alcohol in cap, unbaited control

Assay [1] relates to spotted cutworm (Xestia c-nigrum). The protocol:
(§1) Materials and Methods. The Trappit™ dome trap (Agrisense, Fresno, Calif.) was used in all tests. Two hundred ml of a drowning solution was used in the reservoir of all traps. This solution was 200 ml water, 25 μl of detergent, 50 μl yellow, 25 μl blue, and 60 μl red food dyes (McCormick, Hunt Valley, N.J.), and 20 mg clay. Acetic acid, when tested, was added to the drowning solution as a percent of the solution. Alcohols tested were loaded in polyethylene caps (No. 60975D-3, Kimball Glass, Vineland, N.J.) that were impaled on a push pin glued to the inside of the top of the trap. Traps were serviced two or three times per week depending on weather conditions, and the drowning solution with or without acetic acid was replaced weekly. Alcohols in polyethylene caps were replaced monthly.
(§2) All experiments were conducted in commercial apple and pear orchards. Traps were hung from tree branches at 1.5 to 2 m above ground, with 10 m between traps within a block and 10 m between adjacent blocks.
(§3) Experiment Overview. Four trapping experiments were conducted in apple and pear orchards in the Yakima Valley during the summer of 1998. An initial experiment compared captures of pest moths in traps baited with the combination of acetic acid and 3-methyl-1-butanol to acetic acid alone and to fermented molasses solution. The second experiment was a comparison of the attractiveness of the combination of acetic acid and 3-methyl-1-butanol with varying percentages of acetic acid in the drowning solution. The third experiment was a comparison of the attractiveness of the combination of acetic acid and 3-methyl-1-butanol with varying doses of the 3-methyl-1-butanol in the cap. The fourth experiment was a test of possible synergism or enhancement of acetic acid with 3-methyl-1-butanol and acetic acid with 3-methyl-1-pentanol and a comparison of the two alcohols.
(§4) Trap catch data for each species was subjected to an ANOVA and means were separated by Duncan's New Multiple Range Test for the first and fourth experiments. Linear regression was used to analyze trap data from the second and third experiments to determine if their was a significant relationship between concentration (acetic acid) or dose (3-methyl-1-butanol) and captures of moths in traps.
(§5) Experiment 1. Traps were baited (1) with 0.25% acetic acid in the drowning solution, (2) with 0.5% acetic acid in the drowning solution and one ml of 3-methyl-1-butanol in a polyethylene cap, or (3) with 200 ml of a 10% solution of molasses in water. A randomized complete block design was used, with 4 blocks set up in early May. Traps were maintained through May and June and again in August.
Experiment 4. […]

Assay [2] has as its system Lacanobia subjuncta. The method, then:
as §1, §2, §3, §4, §5
(§6) Experiment 2. Traps were all baited with one ml of 3-methyl-1-butanol in a polyethylene cap and with either no acetic acid in the drowning solution or with 0.008, 0.03, 0.125, 0.5, or 2% glacial acetic acid by volume in the 200 ml of drowning solution. A randomized complete block design was used, with 4 blocks set up in late July, with each of the 6 treatments represented within each block. This experiment was maintained through August and early September.
(§7) Experiment 3. Traps were all baited with 0.25% acetic acid in the drowning solution and either 0, 12.5, 25, 50, or 100% 3-methyl-1-butanol in one ml of a mixture of 3-methyl-1-butanol and mineral oil. A randomized complete block design was used with each of the 5 treatments represented within each block. This experiment was set up in late July and was maintained through early September.
(§8) Experiment 4. Traps were either unbaited (control) or were baited with 0.25% acetic acid in the drowning solution (acetic acid), with 0.25% acetic acid in the drowning solution and one ml of 3-methyl-1-butanol in a polyethylene cap, with 0.25% acetic acid in the drowning solution and one ml of 3-methyl-1-pentanol in a polyethylene cap, with one ml of 3-methyl-1-butanol in a cap, or with one ml of 3-methyl-1-pentanol in a cap.

Assay [3] relates to bertha armyworm (Mamestra configurata). The method, then:
as §1, §2, §3, §4, §5, §6, §7, §8

[4] abbreviates: Experiment 2, 1 ml 3-methyl-1-butanol in cap, no acetic acid.
Where [5] appears, read: Experiment 1, 0.25% acetic acid in drowning solution, 200 ml 10% molasses solution.

Consider `CC(C)CCO` [3-methyl-1-butanol], for which the “Numbers captured in traps” value in assay [1], in assay [2] and in assay [3] was “significantly higher than the unbaited traps” each time. Moreover, the “Numbers of moths captured in traps” value is listed as “nearly no moths” in assay [2] (setting [4]) and “Nearly no” in assay [3] (setting [4]).
With `CC(=O)O` [acetic acid, reference compound], in assay [1] (Experiment 1, females, 0.25% acetic acid, 10% molasses solution), the “Catches of female moths, acetic acid versus molasses” value is on record as “no difference”. The “Numbers captured in traps” value in assay [1], in assay [2] and in assay [3] was “significantly higher than the unbaited traps” throughout. Further, the “Catches of male or female moths, acetic acid versus molasses” value in assay [2] (setting [5]) and in assay [3] (setting [5]) was “no difference” each time.
`CCC(C)CCO` (centres unmarked) [3-methyl-1-pentanol]: the “Numbers captured in traps” value in assay [1], in assay [2] and in assay [3] was “significantly higher than the unbaited traps” in each case.
